Numbered stars: 1 amine (or outer) side, 2 acyl side, 3 side chain; on linkers, the order of the positions; unused ones are H or OH. Square brackets hold non-standard residues; d marks the D form. Side chains are listed from the residue outwards. * marks the point of attachment. C18 diacid = O=C(O)CCCCCCCCCCCCCCCCC(=O)*; γGlu = O=C(O)[C@H](CCC(=O)[*:2])N[*:1]; AEEA = NCCOCCOCC(=O)O; Aib = CC(C)(N)C(=O)O
Legend:
[1] = biological target: T1, human GLP-1 receptor (hGLP-1R) (Homo sapiens, UniProt P43220); assay: GLP-1 receptor assay, method B (CRE-luciferase reporter, BHK cells, 384-well); type: cell-based; settings: hGLP-1R Potency
T1 construct: expressed in transfected cells
T1 sequence (P43220 24-463): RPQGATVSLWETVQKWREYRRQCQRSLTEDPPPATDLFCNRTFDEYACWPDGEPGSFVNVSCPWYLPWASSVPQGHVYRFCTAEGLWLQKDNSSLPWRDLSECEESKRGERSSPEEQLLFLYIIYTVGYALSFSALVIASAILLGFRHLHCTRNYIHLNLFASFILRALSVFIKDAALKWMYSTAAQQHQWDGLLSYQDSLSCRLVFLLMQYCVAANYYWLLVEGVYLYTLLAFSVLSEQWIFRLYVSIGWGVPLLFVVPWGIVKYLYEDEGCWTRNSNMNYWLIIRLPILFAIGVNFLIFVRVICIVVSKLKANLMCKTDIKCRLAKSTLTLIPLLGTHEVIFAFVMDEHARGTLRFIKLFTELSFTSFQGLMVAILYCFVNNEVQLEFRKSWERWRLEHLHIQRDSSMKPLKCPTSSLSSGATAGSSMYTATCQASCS
Description: Cells at approximately 80-90% confluence were washed once in PBS (Gibco 14190-094) and loosened from the cell flasks with Versene (Gibco, 15040-033). […] Cells were aliquoted and stored at −180° C. until use.
(§1) The assay buffer consisted of DMEM without phenol red (Gibco, 11880-028) supplemented with 1× GlutaMAX (Gibco, 35050-038), 10 mM HEPES (Gibco, 15630-056), 1% (w/v) ovalbumin (Sigma, A5503) and 0.1% (v/v) Pluronic F-68 (Gibco, 24040-032) either with HSA or without HSA (Sigma, A9511).
Serial dilutions were transferred to a 384-well assay plate (PerkinElmer/Revvity, 6007688) and mixed with an equal volume (10 μL) of assay buffer without or with 3% (w/v) HSA (Sigma, A-9511). Frozen stocks of hGLP-1R BHK Cre-Luc cells were thawed in a 37° C. water bath, washed once in PBS (Gibco 14190-094), diluted to 1.5×10^5 (1.5E+5) cells/mL in assay buffer (without HSA) and added (10 μL) to each well of the 384-well assay plate. After a short centrifugation, the assay plates were incubated for 3 hours at 37° C. in 5% CO2 and let to equilibrated at room temperature for 10 minutes before the addition of 30 μL steadylite Plus™ PerkinElmer/Revvity, 6066759) per well. Plates were sealed and incubated at room temperature with gentle shaking for 30 minutes while protected from light. Luminescence was detected on a luminescence plate reader e.g. a Synergy 2 (BioTek).

[2] = biological target: T2, human GIP receptor (hGIPR) (Homo sapiens, UniProt P48546); assay: GIP receptor assay, method B (CRE-luciferase reporter, BHK cells, 384-well); type: cell-based; settings: hGIPR Potency
T2 construct: expressed in transfected cells
T2 sequence (P48546 22-466): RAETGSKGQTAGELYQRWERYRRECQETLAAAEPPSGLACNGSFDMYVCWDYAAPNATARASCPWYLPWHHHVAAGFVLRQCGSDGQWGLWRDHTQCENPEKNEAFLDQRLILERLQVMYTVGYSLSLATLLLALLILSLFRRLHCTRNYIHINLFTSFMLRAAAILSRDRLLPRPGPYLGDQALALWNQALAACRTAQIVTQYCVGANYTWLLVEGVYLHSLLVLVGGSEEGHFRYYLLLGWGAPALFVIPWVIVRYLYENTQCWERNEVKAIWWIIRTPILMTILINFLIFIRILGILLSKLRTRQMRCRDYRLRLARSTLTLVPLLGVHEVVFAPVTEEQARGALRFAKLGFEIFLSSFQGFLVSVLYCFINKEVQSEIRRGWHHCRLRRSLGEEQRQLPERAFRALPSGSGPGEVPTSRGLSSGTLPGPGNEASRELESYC
Description: Activation of the human GIP receptor leads to increased intra-cellular concentrations of cyclic AMP (cAMP) and the consequent transcription activation from promoters containing multiple copies of the cAMP response element (CRE). It is thus possible to measure GIP receptor activity using a CRE-luciferase reporter gene introduced into Baby Hamster Kidney (BHK) cells co-expressing the human GIP receptor.
Cells at about 80-90% confluency were washed once with PBS (Gibco 14190-094) and detached from the cell flasks with Versene (Gibco, 15040-066). After centrifugation, the cells were counted, resuspended and diluted to approximately 1.5-3.0×10^6 (1.5E+6 to 3.0E+6) cells/mL in Recovery Cell Culture Freezing Medium (Gibco, 12648-010) and stored at −180° C. in suitable aliquots until use.
as §1
Serial dilutions were transferred to a 384-well assay plate (PerkinElmer/Revvity, 6007688) and mixed with an equal volume (10 μL) of assay buffer without or with 3% HSA (Sigma, A-9511). Frozen stocks of hGIPR BHK Cre-Luc cells were thawed in a 37° C. water bath, washed once in PBS (Gibco 14190-094), diluted to 1.5×10^5 (1.5E+5) cells/mL in assay buffer (without HSA) and added (10 μL) to each well of the 384-well assay plate. After a short centrifugation, the assay plates were incubated for 3 hours at 37° C. in 5% CO2 and let to equilibrated at room temperature for 10 minutes before the addition of 30 μL steadylite Plus™ (PerkinElmer/Revvity, 6066759) per well. Plates were sealed and incubated at room temperature with gentle shaking for 30 minutes while protected from light. Luminescence was detected on a luminescence plate reader e.g. a Synergy 2 (BioTek).

[3] = biological target: T3, human amylin receptor (hAMYR3) (Homo sapiens, UniProt O60896+P30988); assay: Amylin receptor assay, method B (CRE-luciferase reporter, BHK cells); type: cell-based; settings: hAMYR3 Potency
T3 construct: host or cells: BHK cells (Hollex-1 line expressing hCTR(a) and CRE-Luc), further transfected with human RAMP3
T3 sequence (P30988 25-474): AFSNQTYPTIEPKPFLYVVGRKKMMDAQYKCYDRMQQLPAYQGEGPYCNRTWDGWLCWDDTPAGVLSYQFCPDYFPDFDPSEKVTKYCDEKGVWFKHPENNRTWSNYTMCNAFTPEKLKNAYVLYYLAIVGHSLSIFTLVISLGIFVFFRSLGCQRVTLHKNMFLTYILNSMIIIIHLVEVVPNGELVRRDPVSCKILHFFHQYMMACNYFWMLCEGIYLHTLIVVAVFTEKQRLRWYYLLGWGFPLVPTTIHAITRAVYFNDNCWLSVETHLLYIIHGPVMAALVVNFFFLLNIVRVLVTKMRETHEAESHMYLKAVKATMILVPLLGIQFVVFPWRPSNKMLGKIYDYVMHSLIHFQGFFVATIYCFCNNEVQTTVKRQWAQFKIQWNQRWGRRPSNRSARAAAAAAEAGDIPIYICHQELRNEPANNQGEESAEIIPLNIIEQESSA
T3 sequence (O60896 24-148): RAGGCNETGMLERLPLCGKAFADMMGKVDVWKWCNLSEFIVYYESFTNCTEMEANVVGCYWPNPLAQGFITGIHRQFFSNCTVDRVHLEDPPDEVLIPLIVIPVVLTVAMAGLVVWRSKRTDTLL
Description: To assess how the activation of the receptors is potentially influenced by the presence of human serum albumin (HSA), the in vitro assays were performed in the absence of HSA and presence of 1% (w/v) HSA.
It is thus possible to measure hAMYR3 activity using a CRE-luciferase reporter gene introduced into Baby Hamster Kidney (BHK) cells co-expressing the hAMYR3.
The cell line was further transfected with human receptor modifying protein 3 (RAMP3) using standard methods.
After centrifugation, the cell pellet was resuspended and diluted to approximately 2.5-4.0×10^6 (2.5E+6 to 4.0E+6) cells/mL in Recovery™ Cell Culture Freezing Medium (Gibco, 12648-010). Cells were aliquoted and stored at −180° C. until use.
The assay buffer consisted of DMEM without phenol red (Gibco, 11880-028) supplemented with 1× GlutaMAX (Gibco, 35050-038), 10 mM HEPES (Gibco, 15630-056) and 1% (w/v) ovalbumin (Sigma, A5503) either with or without 0.1% (v/v) Pluronic F-68 (Gibco, 24040-032) and either with or without HSA (Sigma, A9511).
To perform the assay, hAMYR3 BHK Cre-Luc cells were thawed, washed once in PBS (Gibco 14190-094) and seeded in 40 μL growth medium in a white 384-well culture plate (PerkinElmer/Revvity, 6007688) at a cell density of 4.0×10^3 (4.0E+3) cells/well the day before the experiment. The plate was incubated over night at 37° C. in 5% CO2. […] Serial dilutions were then mixed in a new 96-well plate with equal volume (1:1:1 ratio) of assay buffer and either assay buffer without or with 3% HSA (Sigma, A-9511). Twenty microliters of the solution mix were transferred to the cells which previously were washed once with PBS (Gibco 14190-094). After a short centrifugation, the assay plates were incubated for 3 hours at 37° C. in 5% CO2 and let to equilibrated at room temperature for 10 minutes before the addition of 30 μL steadylite Plus™ PerkinElmer/Revvity, 6066759) per well. Plates were sealed and incubated at room temperature with gentle shaking for 30 minutes while protected from light. Luminescence was detected on a luminescence plate reader e.g., a Synergy 2 (BioTek).

[4] = biological target: T1, human GLP-1 receptor (hGLP-1R); assay: GLP-1 receptor assay, method A (CRE-luciferase reporter, BHK cells); type: cell-based
How it was run: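 In this CRE-luciferase reporter assay, the human receptor was expressed in BHK cells, and cAMP signalling was followed after a 3 h stimulation at 37° C. The buffer contained 1% (w/v) ovalbumin, and testing was done with and without 1% (w/v) human serum albumin.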

[5] = biological target: T2, human GIP receptor (hGIPR); assay: GIP receptor assay, method A (CRE-luciferase reporter, BHK cells); type: cell-based
How it was run: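 BHK cells co-expressing hGIPR and a CRE-luciferase reporter were stimulated for 3 h at 37 °C with a 7-point, 10-fold compound titration in duplicate. Buffer was DMEM, 10 mM HEPES, 1% ovalbumin, 0.1% Pluronic F-68, without HSA or with 1% (w/v) HSA. EC50 [pM] came from four-parameter logistic fits of luminescence.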

[6] = biological target: T3, human amylin receptor (hAMYR3); assay: Amylin receptor assay, method A (CRE-luciferase reporter, BHK cells); type: cell-based
[7] = Chemical stability assessment in formulation (UPLC-UV-MS purity loss at 37° C.); type: physicochemical; settings: 8 mM phosphate buffer pH 7.4, 1 mg/mL, 2 weeks
How it was run: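 Peptides at target 1 mg/mL in 8 mM phosphate buffer, pH adjusted to 7.4, incubated in capped vials at 37° C. and sampled over 2 weeks, frozen until analysis. Purity followed by UPLC-UV-MS with a 0.1% formic acid water/acetonitrile gradient.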

[8] = 1% HSA, EC50, methods B, in the presence of 1% HSA
[9] = no HSA, EC50, method B, absence of HSA
[10] = hGLP-1R Potency, 1% HSA, EC50, method A, in the presence of 1% HSA
[11] = method A, absence of HSA, read-out: hGLP-1R Potency, no HSA, EC50
[12] = hGIPR Potency, 1% HSA, EC50, method A, in the presence of 1% HSA
[13] = method A, absence of HSA, read-out: hGIPR Potency, no HSA, EC50
[14] = hAMYR3 Potency, 1% HSA, EC50, method A, in the presence of 1% HSA
[15] = method A, absence of HSA, read-out: hAMYR3 Potency, no HSA, EC50

Row | Compound | EC50 [4, 10] [pM] | EC50 [4, 11] [pM] | EC50 [5, 12] [pM] | EC50 [5, 13] [pM] | EC50 [6, 14] [pM] | EC50 [6, 15] [pM] | Purity loss per week at 37° C. [7] [%] | EC50 [1, 8] [pM] | EC50 [1, 9] [pM] | EC50 [2, 8] [pM] | EC50 [2, 9] [pM] | EC50 [3, 8] [pM] | EC50 [3, 9] [pM]
1 | CC[C@H](C)[C@H](NC(=O)[C@H](CCC(=O)O)NC(=O)[C@H](CCC(=O)O)NC(=O)[C@H](CC(C)C)NC(=O)[C@H](CC(C)C)NC(=O)[C@@H](NC(=O)[C@H](CO)NC(=O)[C@H](Cc1ccc(O)cc1)NC(=O)[C@H](CC(=O)O)NC(=O)[C@H](CO)NC(=O)[C@@H](NC(=O)[C@H](Cc1ccccc1)NC(=O)[C@@H](NC(=O)CNC(=O)[C@H](CCC(=O)O)NC(=O)C(C)(C)NC(=O)[C@@H](N)Cc1ccc(O)cc1)[C@@H](C)O)[C@@H](C)O)[C@@H](C)CC)C(=O)N[C@@H](C)C(=O)N[C@@H](C)C(=O)N[C@@H](CCCNC(=N)N)C(=O)N[C@@H](CCC(=O)O)C(=O)N[C@@H](Cc1ccccc1)C(=O)N[C@H](C(=O)N[C@@H](CCC(=O)O)C(=O)N[C@@H](Cc1c[nH]c2ccccc12)C(=O)N[C@@H](CC(C)C)C(=O)N[C@@H](CC(C)C)C(=O)N[C@@H](C)C(=O)NCC(=O)NCC(=O)N1CCC[C@H]1C(=O)N[C@@H](CO)C(=O)N[C@@H](CO)C(=O)NCC(=O)N[C@@H](C)C(=O)NCC(=O)N[C@@H](CCC(=O)O)C(=O)N[C@@H](C)C(=O)N1CCC[C@H]1C(=O)NCC(=O)N[C@@H](CCC(=O)O)C(=O)N[C@@H](C)C(=O)N1CCC[C@H]1C(=O)NCC(=O)N[C@@H](C)C(=O)N[C@@H](CO)C(=O)N[C@@H](Cc1c[nH]cn1)C(=O)N[C@@H](CC(C)C)C(=O)N[C@@H](CO)C(=O)N[C@H](C(=O)N[C@@H](C)C(=O)N[C@@H](CCC(N)=O)C(=O)N[C@H](C(=O)N[C@@H](CCC(N)=O)C(=O)N[C@@H](CCCNC(=N)N)C(=O)N[C@@H](CC(C)C)C(=O)N[C@@H](CO)C(=O)N[C@@H](C)C(=O)N[C@@H](CCC(=O)O)C(=O)N[C@@H](CC(C)C)C(=O)N[C@@H](Cc1c[nH]cn1)C(=O)N[C@@H](CCCCNC(=O)COCCOCCNC(=O)COCCOCCNC(=O)CC[C@H](NC(=O)CCCCCCCCCCCCCCCCCCC(=O)O)C(=O)O)C(=O)N[C@@H](CC(C)C)C(=O)N[C@@H](C)C(=O)N[C@H](C(=O)N[C@@H](CC(C)C)C(=O)N1CCC[C@H]1C(=O)N[C@@H](CCCNC(=N)N)C(=O)N[C@H](C(=O)N[C@@H](CCC(=O)O)C(=O)N[C@H](C(=O)NCC(=O)N[C@@H](CO)C(=O)NCC(=O)N[C@@H](CO)C(=O)N1CCC[C@H]1C(N)=O)[C@@H](C)O)[C@@H](C)O)[C@@H](C)O)[C@@H](C)O)[C@@H](C)O)[C@@H](C)CC [Compound 189] |  |  |  |  |  |  |  | 81.9 | 26.9 | 9.18 | 3.18 | 1210 | 12.7
2 | H[Aib]HGTFTSDYSILLEEQAAREFIEWLLAGGPSK([AEEA-AEEA-γGlu-C18 diacid])GEASQLSTAALGRLSAELHRLATLPRTETGSGSP-NH2 [Compound 73] | 54.1 | 4.55 | 96.5 | 4.98 | 61.5 | 1.99 | 2.8 |  |  |  |  |  | 
3 | H[Aib]HGTFTSDYSILLEEQAAREFIEWLLAGGPSK([AEEA-AEEA-γGlu-C18 diacid])GEASQLSTAALGRLSAELHGLATLPRTETGSGSP-NH2 [Compound 65] | 100 | 4.86 | 118 | 1.89 | 127 | 2.84 | 2.1 |  |  |  |  |  | 

The next lines start with results.

Row | EC50 [4, 10] [pM] | EC50 [4, 11] [pM] | EC50 [5, 12] [pM] | EC50 [5, 13] [pM] | EC50 [6, 14] [pM] | EC50 [6, 15] [pM] | Purity loss per week at 37° C. [7] [%] | Compound | EC50 [1, 8] [pM] | EC50 [1, 9] [pM] | EC50 [2, 8] [pM] | EC50 [2, 9] [pM] | EC50 [3, 8] [pM] | EC50 [3, 9] [pM]
4 | 30.3 | 3.52 | 14.6 | 2.71 | 250 | 4.4 | 2.0 | H[Aib]HGTFTSDYSILLEEQAAREFIEWLLAGGPSSGEASHLSTAQTQRLSAELHK([AEEA-AEEA-γGlu-C18 diacid])LATLPRTETGSGAP-NH2 [Compound 85] |  |  |  |  |  | 
5 | 9.89 | 2.3 | 13.6 | 2.92 | 45.7 | 2.9 | 2.3 | H[Aib]HGTFTSDYSILLEEQAAREFIEWLLAGGPSSGEASHLSTAQTQRLSAELHRLK([AEEA-AEEA-γGlu-C18 diacid])TLPRTETGSGSP-NH2 [Compound 83] |  |  |  |  |  | 

Source: US20260174875A1 (Novo Nordisk A/S, priority 2023, published 2026)
